Reference: patent US7456164B2, “3- or 4-monosubtituted phenol and thiophenol derivatives useful as H3 ligands” (Pfizer, Inc, priority 2004, dated 2008)
Read-outs that look alike come from different tables or passages of the source.

Target: T1, human histamine H3 receptor (Homo sapiens, UniProt Q9Y5N1)
T1 construct: expressed in transfected cells
Assay: H3 cell based functional assay (cAMP, β-lactamase reporter gene)
Protocol: Compounds were evaluated using a cell based functional assay measuring cAMP through β-lactamase reporter gene activity. A stable cell line was generated from HEK-293 cells expressing a CRE β-lactamase reporter gene and transfected with human histamine H3 receptor cDNA. Cells were seeded at a density of 500,000 cells/ml, and grown overnight in MEM (Invitrogen) supplemented with 1% dialysed FBS (Sigma), 2 mM glutamine (Sigma), 1 mM sodium pyruvate (Sigma), 0.1 mM non essential amino acids (Invitrogen) and 25 mM HEPES (Sigma) in poly D lysine coated 384 well plates (BD Biosciences). […] Cells were incubated for 15 minutes plus/minus compound and their ability to permit 10 μM forskolin-stimulated cAMP synthesis in the presence of 1 nM imetit was measured as described above.

[1] = functional Ki from IC50 by Cheng-Prussoff, HEK-293 CRE β-lactamase cells, 10 μM forskolin, 1 nM imetit, read-out: Ki (H3 cell based assay - nM)

T1 sequence (Q9Y5N1 whole entry): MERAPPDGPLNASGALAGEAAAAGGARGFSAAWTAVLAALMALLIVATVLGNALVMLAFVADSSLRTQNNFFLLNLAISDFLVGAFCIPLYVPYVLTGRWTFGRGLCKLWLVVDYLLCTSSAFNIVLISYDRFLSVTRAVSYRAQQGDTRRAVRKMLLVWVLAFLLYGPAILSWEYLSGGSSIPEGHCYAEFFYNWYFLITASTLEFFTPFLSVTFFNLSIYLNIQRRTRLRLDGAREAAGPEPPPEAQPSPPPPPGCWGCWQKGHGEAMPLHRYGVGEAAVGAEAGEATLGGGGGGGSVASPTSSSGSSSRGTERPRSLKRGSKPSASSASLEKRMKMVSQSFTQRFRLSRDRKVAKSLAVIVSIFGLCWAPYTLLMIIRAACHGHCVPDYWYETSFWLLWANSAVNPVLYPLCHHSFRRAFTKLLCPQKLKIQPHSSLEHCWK

Structure (SMILES) | Ki [1] | Ki
c1ccc(C2(c3ccc(OCCCN4CCCC4)cc3)CCOCC2)nc1 [Example 205, 2-{4-[4-(3-pyrrolidin-1-ylpropoxy)phenyl]tetrahydro-2H-pyran-4-yl}-pyridine] | 5.8 nM | –
CN(C)CC1(c2ccc(OCCCN3CCOCC3)cc2)CCOCC1 [Example 213, N,N-dimethyl-1-{4-[4-(3-morpholin-4-ylpropoxy)phenyl]tetrahydro-2H-pyran-4-yl}methanamine] | 2.6 nM | –
O=C(N1CCCCC1)C1(c2ccc(OCCCN3CCCC3)cc2)CCOCC1 [Example 188, 1-({4-[4-(3-pyrrolidin-1-ylpropoxy)phenyl]-tetrahydro-2H-pyran-4-yl}carbonyl)piperidine] | 6.8 nM | –
c1ncc(C2(c3ccc(OCCCN4CCCC4)cc3)CCOCC2)o1 [Example 206, 5-{4-[4-(3-pyrrolidin-1-ylpropoxy)phenyl]tetrahydro-2H-pyran-4-yl}-1,3-oxazole] | 12.9 nM | –
CC(C)N1CCC(Oc2ccc(C3(C(=O)N(C)C)CCOCC3)cc2)CC1 [Example 133, 4-{4-[(1-isopropylpiperidin-4-yl)oxy]phenyl}-N,N-dimethyltetrahydro-2H-pyran-4-carboxamide] | 12.4 nM | –
c1cc(C2(CN3CCOCC3)CCOCC2)ccc1OCCCN1CCCOCC1 [Example 268, 4-(3-{4-[4-(morpholin-4-ylmethyl)tetrahydro-2H-pyran-4-yl]phenoxy}propyl)-1,4-oxazepane] | 6.5 nM | –
c1ccc2c(c1)ncn2CC1(c2ccc(OCCCN3CCCC3)cc2)CCOCC1 [Example 196] | 0.6 nM | –
CCNC(=O)C1(c2ccc(OC3CCN(C4CCC4)CC3)cc2)CCOCC1 [Example 160, 4-{4-[(1-cyclobutylpiperidin-4-yl)oxy]phenyl}-N-ethyltetrahydro-2H-pyran-4-carboxamide] | 1.5 nM | –
c1c[nH]c(C2(c3ccc(OCCCN4CCCC4)cc3)CCOCC2)n1 [Example 266, 2-{4-[4-(3-pyrrolidin-1-ylpropoxy)phenyl]tetrahydro-2H-pyran-4-yl}-1H-imidazole] | 9.7 nM | –
c1cc(C2(c3ccc(OCCCN4CCCC4)cc3)CCOCC2)ncn1 [Example 276, 4-{4-[4-(3-pyrrolidin-1-ylpropoxy)phenyl]tetrahydro-2H-pyran-4-yl}pyrimidine] | 6.2 nM | –
CN(C)C(=O)C1(c2ccc(OC3CCN(C4CCC4)CC3)cc2)CCOCC1 [Example 155, 4-{4-[(1-cyclobutylpiperidin-4-yl)oxy]phenyl}-N,N-dimethyltetrahydro-2H-pyran-4-carboxamide] | 1 nM | –
O=C(N1CCCC1)C1(c2ccc(OCCCN3CCCC3)cc2)CCOCC1 [Example 187, 1-(3-{4-[4-(pyrrolidin-1-ylcarbonyl)tetrahydro-2H-pyran-4-yl]phenoxy}propyl)pyrrolidine] | 7.3 nM | –
CN(C)C(=O)C1(c2ccc(OCCCN3CCCC3)cc2)CCOCC1 [Example 191, N,N-dimethyl-4-[4-(3-pyrrolidin-1-ylpropoxy)-phenyl]tetrahydro-2H-pyran-4-carboxamide] | 10.3 nM | –
CN(C)CC1(c2ccc(OCCCN3CCCC3)cc2)CCOCC1 [Example 29, Dimethyl-{4-[4-(3-pyrrolidin-1-ylpropoxy)phenyl]-tetrahydro-pyran-4-ylmethyl}amine] | 0.4 nM | –
c1cnc2c(c1)ncn2CC1(c2ccc(OCCCN3CCCC3)cc2)CCOCC1 [Example 248, 3-({4-[4-(3-pyrrolidin-1-ylpropoxy)phenyl]tetrahydro-2H-pyran-4-yl}methyl)-3H-imidazo[4,5-b]pyridine] | 0.3 nM | –
c1cc(NCC2(c3ccc(OCCCN4CCCC4)cc3)CCOCC2)cnn1 [Example 250, N-({4-[4-(3-pyrrolidin-1-ylpropoxy)phenyl]tetrahydro-2H-pyran-4-yl}methyl)pyridazin-4-amine] | 4.6 nM | –
c1cnc2ncn(CC3(c4ccc(OCCCN5CCCC5)cc4)CCOCC3)c2c1 [Example 249, 1-({4-[4-(3-pyrrolidin-1-ylpropoxy)phenyl]tetrahydro-2H-pyran-4-yl}methyl)-1H-imidazo[4,5-b]pyridine] | 9.7 nM | –
CCN(C)C(=O)C1(c2ccc(OCCCN3CCCC3)cc2)CCOCC1 [Example 190, N-ethyl-N-methyl-4-[4-(3-pyrrolidin-1-ylpropoxy)phenyl]tetrahydro-2H-pyran-4-carboxamide] | 2.4 nM | –
c1cc(C2(Cn3cnnc3)CCOCC2)ccc1OCCCN1CCCC1 [Example 272, 4-({4-[4-(3-pyrrolidin-1-ylpropoxy)phenyl]tetrahydro-2H-pyran-4-yl}methyl)-4H-1,2,4-triazole] | 10.8 nM | –
Cc1csc(C2(c3ccc(OCCCN4CCCC4)cc3)CCOCC2)n1 [Example 136, 4-methyl-2-[4-(4-(3-pyrrolidin-1-ylpropoxy)phenyl)tetrahydro-2H-pyran-4-yl]-1,3-thiazole] | 3.9 nM | –
CC(C)N1CC(COc2ccc(C3(CN4CCOCC4)CCOCC3)cc2)C1 [Example 220, 4-[(4-{4-[(1-isopropylazetidin-3-yl)methoxy]phenyl}tetrahydro-2H-pyran-4-yl)methyl]morpholine] | 2.2 nM | –
c1cc2c(cn1)ncn2CC1(c2ccc(OCCCN3CCCC3)cc2)CCOCC1 [Example 247, 1-({4-[4-(3-pyrrolidin-1-ylpropoxy)phenyl]tetrahydro-2H-pyran-4-yl}methyl)-1H-imidazo[4,5-c]pyridine] | 3.9 nM | –
O=C(N1CCC1)C1(c2ccc(OCCCN3CCCC3)cc2)CCOCC1 [Example 189, 1-(3-{4-[4-(azetidin-1-ylcarbonyl)tetrahydro-2H-pyran-4-yl]phenoxy}propyl)pyrrolidine] | 14.3 nM | –
CC(C)N1CCC(Oc2ccc(C3(CNc4ccnnc4)CCOCC3)cc2)CC1 [Example 267, N-[(4-{4-[(1-isopropylpiperidin-4-yl)oxy]phenyl}tetrahydro-2H-pyran-4-yl)methyl]pyridazin-4-amine] | – | 5.8 nM
CNC(=O)C1(c2ccc(OC3CCN(C4CCC4)CC3)cc2)CCOCC1 [Example 156, 4-{4-[(1-cyclobutylpiperidin-4-yl)oxy]phenyl}-N-methyltetrahydro-2H-pyran-4-carboxamide] | 2 nM | –
CNCC1(c2ccc(OCCCN3CCOCC3)cc2)CCOCC1 [Example 254, N-methyl-1-{4-[4-(3-morpholin-4-ylpropoxy)phenyl]tetrahydro-2H-pyran-4-yl}methanamine] | 1.3 nM | –
